Measured values as given in patent publication US20170027955A1, “EXPRESSION LEVELS OF BCL-XL, BCL2, BCL-W, AND BAD AND CANCER THERAPIES” (Constellation Pharmaceuticals, Inc., priority 2014, published 2017).

Assays:
AMO-1 cell line = assay: Sub-G1 (apoptosis) and G0/G1 (G1 arrest) DNA content after 4 days of treatment, flow cytometry; type: cell-based
Method: (§1) Approximately 60 hematological cancer cell lines were profiled, with representative numbers of leukemia, multiple myeloma/plasmacytoma, and lymphoma cell lines. Cells were grown in the presence of BET inhibitors, (9), (10), and (11), for 4 days. Viability was measured using a fluorescent dye (resazurin, Sigma) that measures mitochondrial fitness as a proxy for cell number. Raw fluorescence values at each compound concentration were normalized to the values in the absence of compound, and percentage growth was plotted to determine the concentration of compound at which 50% growth inhibition was achieved (GI50). Cells were then fixed and stained with propidium iodide for flow cytometric determination of cell cycle distribution. The percentage of cells with less than G0/G1 DNA content (% subG1) was used as a measurement of apoptosis. The percentage of viable cells (non-subG1 cells) with G0/G1 DNA content was measured, and the % GI for control cells was subtracted from the % GI at each compound concentration to calculate a percentage increase in G1.
The bottom panels show the dose dependent increase in the percentage of cells with sub-G1 DNA content (apoptosis) and G0/G1 DNA content (G1 arrest) in response to 4 days of treatment with the same BET inhibitors in the AMO-1 cell line.

NOMO-1 cells = assay: BETi-resistant NOMO-1 AML cells: proliferation and viability; type: cell-based
Method: A BETi-resistant acute myeloid leukemia (AML) cell line was prepared. NOMO-1 cells were treated with increasing concentrations of (9), and when the population consisted of less than 80% live cells, viable cells were enriched by spinning over Ficoll-Paque (GE Healthcare). At the end of this procedure cells were able to proliferate in the presence of 1 μM (9), and were maintained at this dose, which is about 30-fold higher than their original GI50 (FIG. 6A). The ideal growth conditions for the BETi-tolerant cells appeared to be in the presence of ˜0.1 μM (9). While parental cells induced a robust apoptotic response in response to BETi, resistant cells grown in the presence of BETi only underwent apoptosis when the inhibitor was completely removed (FIG. 6B).
(See e.g., Fernald and Kurokawa. Evading Apoptosis in Cancer. Trends Cell Biol. 2013 December; 23(12): 620-633.) Expression of the pro-apoptotic gene BCL2L11 (encoding BIM) was increased in parental cells upon treatment with BETi (FIG. 6C). The relative expression ratio of BCL2L11/BCL2 correlated with the apoptotic response in parental cells (FIG. 6D). In the resistant cells cultured in the presence of (9), high levels of BIM were maintained (FIG. 6C). […]

[1] = tested on: BET inhibitor resistant A375 cells; assay: Co-treatment of BET inhibitor resistant A375 cells with (9) and ABT-737 for 11 days; type: cell-based, human; details: resistant A375 cells co-treated with 1 μM (9) and increasing concentrations of ABT-737, 11 days
Method: BCL-xL is targeted by several commercially available BCL-2 family small molecule inhibitors (Billard, C. et al. BH3 mimetics: status of the field and new developments. Mol Cancer Ther. 2013 September; 12(9):1691-700). To test whether pharmacological inhibition of BCL-xL would restore sensitivity to BET inhibition in BET inhibitor resistant A375 cells, parental and resistant cells were co-treated with 1 μM (9) or DMSO and increasing concentrations of the pan-BCL2 inhibitor ABT-737 for 11 days (Ottersdorf, T., et al. An inhibitor of Bcl-2 family proteins induces regression of solid tumours. Nature. 2005 Jun. 2; 435(7042):677-81).

A375 cells = assay: Growth inhibition (GI50) of A375 cells by BET inhibitor; type: cell-based, human
Method: as §1
The human melanoma cell line A375 is phenotypically sensitive to BET inhibition, with a GI50 of 0.10 μM for (9) (FIG. 3, top panel). To understand possible mechanisms of acquired and de novo resistance to BET inhibition, A375 cells were grown in the presence of 1 μM of (9) for approximately 90 days. […]

[2] = tested on: panel of 245 cell lines of varying lineages; assay: Viability of a panel of 245 cell lines treated with BET inhibitor for 3 or 4 d (Cell Titer Glo or resazurin); type: cell-based
Method: In order to identify predictive biomarkers for phenotypic response to BET inhibition, viability data was obtained for a panel of cell lines for which gene expression data are available. A panel of 245 cell lines of varying lineages (FIG. 7) was treated with the BET bromodomain inhibitor (9) for 3 or 4 d. Viability was assessed using either Cell Titer Glo (Promega) or resazurin (Sigma). GI50 values were determined as the concentration of inhibitor that caused viability to be reduced by 50% relative to the vehicle-treated control cells. Cell lines were defined as “sensitive” if GI50 values were at or below 0.25 μM, and as “insensitive” if GI50 values were above 0.25 μM. […] Where multiple probe sets were available for a given gene, the probe set that hybridized to all transcript variants and gave the largest standard deviation across the panel of cell lines was chosen. Based on the correlations shown in FIGS. 8 and 9, cell lines expressing high levels of BCL2 were defined as those expressing an RMA value of BCL2 within the top 33% of all 245 cell lines. Similarly, cell lines expressing low levels of BCL2L1, BCL2L2, and BAD were defined as those expressing RMA values of these genes within the bottom 33% of all cell lines. […] Further enrichment was obtained by combining criteria, with the highest enrichment obtained by selecting for cell lines with high expression of BCL2 and low expression of BCL2L1 (65%±7% response rate) or high expression of BCL2 and low expression of BAD (75%±6% response rate) (FIG. 11). Similar enrichment of responsive cell lines is obtained when cell lines of hematologic origin are considered separately from those of solid tumor origin (FIG. 12-15).

## Cc1noc2c1-c1ccc(-c3cnn(C)c3)cc1C(c1ccc(Cl)cc1)=N[C@H]2CC(N)=O [(11)]
AMO-1 cell line
  maximal response (% sub-G1 and G0/G1 DNA content): equivalent

## Cc1noc2c1-c1ccccc1C(c1ccc(Cl)cc1)=N[C@H]2CC(N)=O [(10)]
AMO-1 cell line
  maximal response (% sub-G1 and G0/G1 DNA content): equivalent

## CC1(C)CCC(CN2CCN(c3ccc(C(=O)NS(=O)(=O)c4ccc(NCC5CCOCC5)c([N+](=O)[O-])c4)c(Oc4cnc5[nH]ccc5c4)c3)CC2)=C(c2ccc(Cl)cc2)C1 [ABT-199, reference compound]
NOMO-1 cells; resistant NOMO-1 cells, FIG. 6f
  phenotypic sensitivity of resistant cells to BCL2 inhibitor: increased phenotypic sensitivity

## CN(C)CC[C@H](CSc1ccccc1)Nc1ccc(S(=O)(=O)NC(=O)c2ccc(N3CCN(Cc4ccccc4-c4ccc(Cl)cc4)CC3)cc2)cc1[N+](=O)[O-] [ABT-737]
[1]
  restoration of sensitivity to (9): restores sensitivity to (9) in a dose-dependent manner

## Cc1sc2c(c1C)C(c1ccc(Cl)cc1)=N[C@@H](CC(N)=O)c1nnc(C)n1-2 [(9)]
A375 cells; A375 clones grown in 1 μM (9) for approximately 90 days, after 11 days
  shift in GI50 of resistant clones relative to parental cells: relatively modest shift in GI50
A375 cells; A-375, parental human melanoma cell line A375
  GI50: 100 nM
[2]; all 245 cell lines
  overall response rate (fraction of cell lines with GI50 equal to or less than 0.25 μM): 28%
[2]; cell lines with high expression of BCL2 and low expression of BAD
  response rate (fraction of cell lines with GI50 equal to or less than 0.25 μM): 75%±6%
[2]; cell lines with high expression of BCL2 and low expression of BCL2L1
  response rate (fraction of cell lines with GI50 equal to or less than 0.25 μM): 65%±7%
AMO-1 cell line
  maximal response (% sub-G1 and G0/G1 DNA content): equivalent
NOMO-1 cells; BETi-resistant NOMO-1 cells proliferating in 1 μM (9)
  maintenance concentration of resistant cells (1 μM) relative to original GI50: about 30 fold
